# Measured values published in US20250313546A1, “NUCLEIC ACID BINDERS” (UNIVERSITY OF STRATHCLYDE, priority 2022, published 2025).
# Legend:
# [1] = tested on: Human rhinovirus (HRV-14); assay: Viral ToxGlo assay, Hela Ohio cells; assay type: cell-based; details: M-HeLa, 72 h
# [2] = tested on: Staphylococcus aureus (ATCC 43300); assay: Antibacterial MIC, broth microdilution (CLSI); assay type: cell-based; details: for S. aureus Selectivity Indices, Group: Alkyl Amidines and NH Pyrroles; for MIC80: Staphylococcus aureus, ATCC43300, read-out: MIC80 S. aureus
# [3] = tested on: Rhizopus arrhizus (NEQAS12.35321); details: read-out: MIC99 Rhizopus arrhizus
# C. albicans (ATCC 90028) = details: Candida albicans, ATCC90028, read-out: MIC99 C. albicans
# Description: (§2) The Minimum Inhibitory Concentration (MIC, at 99% inhibition) of the compounds was determined using the broth microdilution method as recommended by EUCAST (EUCAST Definitive Document E.DEF 9.3.2, Method for the determination of broth dilution minimum inhibitory concentrations of antifungal agents for conidia forming moulds and EUCAST Definitive Document E.DEF 7.3.2 Method for the determination of broth dilution minimum inhibitory concentrations of antifungal agents for yeasts).
# Influenza (H1N1) = assay: Accelerated Viral Neuraminidase Inhibition Assay (AVINA), A549 cells; assay type: cell-based; details: Influenza A virus, 72 h
# [4] = tested on: Genomic double stranded DNA (salmon); assay: Fluorescence intercalator displacement (FID) assay, SYBR-safe probe; details: 20 μM compound, 30° C., lower % = stronger binding
# Procedure, shortened: (§1)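 Probe displacement was measured at 30 °C in 1 mM phosphate pH 7.4 containing SybrSafe (12500-fold dilution), 3.76 ng/mL nucleic acid (salmon dsDNA or polyAU dsRNA) and 20 μM compound. Fluorescence loss is normalised between probe-only and probe-plus-nucleic-acid controls.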
# [5] = tested on: PolyAU double stranded RNA; assay: as above; details: 20 μM compound, 30° C., lower % = stronger binding
# Procedure, shortened: as §1
# [6] = tested on: A. fumigatus A1160 (MFIG001); details: Aspergillus fumigatus, read-out: MIC99 A. fumigatus A1160
# Description: as §2
# [7] = tested on: Candida glabrata (ACPF3309); details: for MIC99: Nakaseomyces glabratus, read-out: MIC99 Candida glabrata; for C. glabrata Selectivity Indices, Group: Alkyl Amidines and NH Pyrroles
# [8] = tested on: SARS-CoV-2 (hCoV-19/Australia/VIC01/2020); assay: SARS-CoV-2 microplaque inhibition assay in Vero-E6 cells; assay type: cell-based; details: for IC50: Severe acute respiratory syndrome coronavirus 2, Vero C1008, plaque inhibition, Vero-E6 cells, read-out: IC50 SARS-CoV-2
# [9] = tested on: Escherichia coli (ATCC 25922); assay: Antibacterial MIC, broth microdilution (CLSI); assay type: cell-based; details: Escherichia coli, ATCC25922; read-out: MIC80 E. coli
# T. equiperdum = assay: Resazurin-based (Alamar blue) drug sensitivity assay; details: Trypanosoma equiperdum, read-out: IC50 T. equiperdum
# [10] = tested on: Enterococcus faecalis (ATCC 51299); assay: Antibacterial MIC, broth microdilution (CLSI); assay type: cell-based; details: for MIC80: Enterococcus faecalis, ATCC51299, read-out: MIC80 E. faecalis; for E. faecalis Selectivity Indices, Group / E. faecalis Selectivity Index (SI): SI, IC50 (μM)/MIC80 (μM), HEK293 cytotoxicity; for E. faecalis Selectivity Indices, Group: Alkyl Amidines and NH Pyrroles; for E. faecalis Selectivity Index (SI): numeric value
# Candida auris (H.17.157) = details: for MIC99: Candidozyma auris, read-out: MIC99 Candida auris; for C. auris Selectivity Indices, Group: Alkyl Amidines and NH Pyrroles
# A. flavus (CBS 128.202) = details: Aspergillus flavus, CBS128, read-out: MIC99 A. flavus
# [11] = tested on: Fusarium oxysporum (F7098); details: read-out: MIC99 Fusarium oxysporum
# Description: as §2
# [12] = tested on: Scedosporium prolificans (F2746); details: Lomentospora prolificans, read-out: MIC99 Scedosporium prolificans
# Description: as §2
# C. neoformans (F10025) = details: Cryptococcus neoformans, read-out: MIC99 C. neoformans
# [13] = tested on: human respiratory syncytial virus (RSV A2); assay: Viral ToxGlo assay, Hep-2 cells; assay type: cell-based; details: 72 h
# T. evansi AntTat 3/3 = assay: Resazurin-based (Alamar blue) drug sensitivity assay; details: read-out: IC50 T. evansi
# Description: A detailed description of the procedure for evaluating activity against trypanosomes, using an Alamar Blue (resazurin) assay, is described below.
# The bloodstream form (BSF) T. b. brucei s427 (see De Koning, H. P. et al., Mol. Biochem. Parasitol. 2000, 106, 181-185), T. evansi AntTat 3/3 (see Dean, S. et al., Proc. Natl. Acad. Sci. USA, 2013, 110, 14741-14746), and T. equiperdum (see Stewart, M. L. et al., Eukaryot. Cell, 2010, 9, 336-343) were cultured in HMI-9 medium (Life Technologies, Paisley, United Kingdom) supplemented with 10% heat inactivated Foetal Bovine Serum (FBS (PAA Laboratories Linz, Austria)), 14 μL/L β-mercaptoethanol (BDH, Dorset, UK), and 3.0 g/L NaHCO3 (Sigma-Aldrich) and adjusted to pH 7.4. These cell lines were maintained at 37° C. in a humidified, 5% CO2 environment.
# A resazurin-based (Alamar blue) drug sensitivity assay was used to assess and compare the activity of standard trypanocides in the different cell lines investigated (see Gould, M. K. et al., Anal. Biochem., 2008, 382, 87-93). Briefly, 23 doubling dilutions of the test compound of the invention, starting at 100 μM, and a compound-free control were prepared in 100 μL medium in a 96-well white plate (Greiner Bio-one, Frickenhausen, Germany). The cells were adjusted to 2×10^4 cells/mL for T. b. brucei and T. equiperdum; 4×10^4 cells/mL for T. evansi; and 5×10^5 cells/mL for T. congolense in the appropriate medium. 100 μL of the adjusted cells was then added to the wells containing drug dilutions and incubated for 48 h under respective culture condition. Thereafter, 20 μL of 125 mg/mL resazurin sodium dye was added, and the plate was incubated for a further 24 h.
# T. vaginalis = assay: Trichomonas resorufin assay; assay type: cell-based
# [14] = SI, IC50 (μM)/MIC80 (μM), HEK293 cytotoxicity
# [15] = SI, IC50 (μM)/IC50 (μM), HEK293 cytotoxicity, Alkyl Amidines and NH Pyrroles
# [16] = SI, IC50 (μM)/MIC99 (μg/mL), HEK293 cytotoxicity
# [17] = SI, IC50 (μM)/MIC99 (μg/mL), HEK293 cytotoxicity, numeric value
smiles,measurement,setting,value
"CN(C)c1ccc(/C=C/c2ccc(C(=O)Nc3c[nH]c(C(=O)Nc4cc(C(=O)NCCC(=N)N)n(C)c4)c3)cn2)cc1 [IIIa5, (E)-N-(5-((5-((3-amino-3-iminopropyl)carbamoyl)-1-methyl-1H-pyrrol-3-yl)carbamoyl)-1H-pyrrol-3-yl)-6-(4-(dimethylamino)styryl)nicotinamide]",inhibition at 20 µM,[1],> 50%
same,"S. aureus Selectivity Indices, Group",[2]; [14],C (Group C: 5 < SI <= 10)
same,MIC80,[2],< 5 µM
same,MIC99,[3],5 to 25 µg/mL
same,MIC99,C. albicans (ATCC 90028),< 5 µg/mL
same,inhibition at 20 µM,Influenza (H1N1),25 to 50%
same,% Normalised Fluorescence with gDNA,[4],11%
same,% Normalised Fluorescence with polyAU RNA,[5],3%
same,MIC99,[6],5 to 25 µg/mL
same,MIC99,[7],5 to 25 µg/mL
same,"SARS-CoV-2 Selectivity Indices, Group",[8]; [15],D (Group D: SI > 25)
same,SARS-CoV-2 Selectivity Index (SI),"[8]; SI, IC50 (μM)/IC50 (μM), HEK293 cytotoxicity, numeric value",39
same,IC50,[8],< 2000 nM
same,MIC80,[9],> 100 µM
same,IC50,T. equiperdum,100 to 1000 nM
same,MIC80,[10],5 to 25 µM
same,MIC99,Candida auris (H.17.157),5 to 25 µg/mL
same,"C. auris Selectivity Indices, Group",Candida auris (H.17.157); [16],D (Group D SI > 3)
same,C. auris Selectivity Index (SI),Candida auris (H.17.157); [17],5
same,MIC99,A. flavus (CBS 128.202),5 to 25 µg/mL
"C/N=C(/CCNC(=O)c1cc(NC(=O)c2cc(NC(=O)c3ccc(/C=C/c4ccc5nonc5c4)cc3)cn2C)cn1C)NC [Ia6, 4-(4-((E)-2-(benzo[c][1,2,5]oxadiazol-5-yl)vinyl)benzamido)-1-methyl-N-(1-methyl-5-(((Z)-3-(methylamino)-3-(methylimino)propyl)carbamoyl)-1H-pyrrol-3-yl)-1H-pyrrole-2-carboxamide]",MIC80,[2],< 5 µM
same,MIC99,[3],5 to 25 µg/mL
same,MIC99,C. albicans (ATCC 90028),< 5 µg/mL
same,% Normalised Fluorescence with gDNA,[4],3%
same,% Normalised Fluorescence with polyAU RNA,[5],6%
same,MIC99,[6],< 5 µg/mL
same,MIC99,[7],< 5 µg/mL
same,MIC80,[9],> 100 µM
same,MIC99,[11],< 5 µg/mL
same,MIC99,[12],< 5 µg/mL
same,MIC80,[10],< 5 µM
same,MIC99,C. neoformans (F10025),< 5 µg/mL
same,MIC99,Candida auris (H.17.157),> 50 µg/mL
same,MIC99,A. flavus (CBS 128.202),< 5 µg/mL
"N=C(N)CCNC(=O)c1cc(NC(=O)c2cc(NC(=O)c3ccc(/C=C/c4cnc5ccccc5c4)cc3)c[nH]2)c[nH]1 [IIIa6, (E)-N-(3-amino-3-iminopropyl)-4-(4-(4-(2-(quinolin-3-yl)vinyl)benzamido)-1H-pyrrole-2-carboxamido)-1H-pyrrole-2-carboxamide]",inhibition at 20 µM,[1],> 50%
same,"S. aureus Selectivity Indices, Group",[2]; [14],D (D: SI > 10)
same,S. aureus Selectivity Index (SI),"[2]; SI, IC50 (μM)/MIC80 (μM), HEK293 cytotoxicity, numeric value",14
same,MIC80,[2],< 5 µM
same,MIC99,[3],25 to 50 µg/mL
same,inhibition at 20 µM,Influenza (H1N1),> 50%
same,% Normalised Fluorescence with gDNA,[4],18%
same,% Normalised Fluorescence with polyAU RNA,[5],29%
same,MIC99,[6],5 to 25 µg/mL
same,inhibition at 20 µM,[13],> 50%
same,MIC99,[7],< 5 µg/mL
same,"C. glabrata Selectivity Indices, Group",[7]; [16],D (Group D: SI > 50)
same,C. glabrata Selectivity Index (SI),[7]; [17],109
same,IC50,T. evansi AntTat 3/3,10 to 100 nM
same,MIC80,[9],25 to 100 µM
same,IC50,T. equiperdum,< 10 nM
same,MIC80,[10],< 5 µM
same,"E. faecalis Selectivity Indices, Group",[10],D (D: SI > 10)
same,E. faecalis Selectivity Index (SI),[10],14
same,MIC99,C. neoformans (F10025),< 5 µg/mL
same,MIC99,Candida auris (H.17.157),5 to 25 µg/mL
same,"C. auris Selectivity Indices, Group",Candida auris (H.17.157); [16],D (Group D SI > 3)
"CC/N=C(\N)CCNC(=O)c1cc(NC(=O)c2cc(NC(=O)c3ccc(/C=C/c4ccc5nonc5c4)cc3)cn2C)cn1C [Ia12, N—((Z)-3-amino-3-(ethylimino)propyl)-4-(4-(4-((E)-2-(benzo[c][1,2,5]oxadiazol-5-yl)vinyl)benzamido)-1-methyl-1H-pyrrole-2-carboxamido)-1-methyl-1H-pyrrole-2-carboxamide]",inhibition at 20 µM,[1],10 to 25%
same,"S. aureus Selectivity Indices, Group",[2]; [14],C (Group C: 5 < SI <= 10)
same,MIC80,[2],5 to 25 µM
same,"T. vaginalis Selectivity Indices, Group",T. vaginalis; [15],B (Group B: 8 < SI <= 16)
same,IC50,"T. vaginalis; Trichomonas vaginalis, read-out: IC50 T. vaginalis",1000 to 5000 nM
same,inhibition at 20 µM,Influenza (H1N1),> 50%
same,% Normalised Fluorescence with gDNA,[4],2%
same,% Normalised Fluorescence with polyAU RNA,[5],2%
same,MIC99,[6],> 50 µg/mL
same,inhibition at 20 µM,[13],> 50%
same,MIC99,[7],5 to 25 µg/mL
same,IC50,[8],8000 to 32000 nM
same,IC50,T. evansi AntTat 3/3,100 to 1000 nM
same,MIC80,[9],> 100 µM
same,IC50,T. equiperdum,100 to 1000 nM
same,MIC80,[10],< 5 µM
same,"E. faecalis Selectivity Indices, Group",[10],D (D: SI > 10)
same,E. faecalis Selectivity Index (SI),[10],23
same,MIC99,C. neoformans (F10025),5 to 25 µg/mL
"Cn1cc(NC(=O)c2ccc(/C=C/c3ccc4nonc4c3)cc2)cc1C(=O)Nc1c[nH]c(C(=O)NCCC(=N)N)c1 [IIIa3, (E)-N-(5-((3-amino-3-iminopropyl)carbamoyl)-1H-pyrrol-3-yl)-4-(4-(2-(benzo[c][1,2,5]oxadiazol-5-yl)vinyl)benzamido)-1-methyl-1H-pyrrole-2-carboxamide]",inhibition at 20 µM,[1],25 to 50%
same,"S. aureus Selectivity Indices, Group",[2]; [14],B (Group B: 3 < SI <= 5)
same,MIC80,[2],5 to 25 µM
same,MIC99,[3],> 50 µg/mL
same,inhibition at 20 µM,Influenza (H1N1),> 50%
same,% Normalised Fluorescence with gDNA,[4],27%
same,% Normalised Fluorescence with polyAU RNA,[5],3%
same,MIC99,[6],5 to 25 µg/mL
same,inhibition at 20 µM,[13],> 50%
same,MIC99,[7],< 5 µg/mL
same,"C. glabrata Selectivity Indices, Group",[7]; [16],B (Group B: 12 < SI <= 20)
same,IC50,T. evansi AntTat 3/3,10 to 100 nM
same,MIC80,[9],> 100 µM
same,IC50,T. equiperdum,10 to 100 nM
same,MIC80,[10],5 to 25 µM
same,MIC99,C. neoformans (F10025),< 5 µg/mL
same,MIC99,Candida auris (H.17.157),> 50 µg/mL
"C/N=C(/CCNC(=O)c1cc(NC(=O)c2cc(NC(=O)c3ccc(/C=C/c4nc5ccccc5s4)cc3)cn2C)cn1C)NC [Ia11, 4-(4-((E)-2-(benzo[d]thiazol-2-yl)vinyl)benzamido)-1-methyl-N-(1-methyl-5-(((Z)-3-(methylamino)-3-(methylimino)propyl)carbamoyl)-1H-pyrrol-3-yl)-1H-pyrrole-2-carboxamide]",MIC80,[2],5 to 25 µM
same,MIC99,[3],5 to 25 µg/mL
same,MIC99,C. albicans (ATCC 90028),5 to 25 µg/mL
same,MIC99,[6],5 to 25 µg/mL
same,MIC99,[7],< 5 µg/mL
same,IC50,[8],8000 to 32000 nM
same,MIC80,[9],> 100 µM
same,MIC99,[12],5 to 25 µg/mL
same,MIC80,[10],> 100 µM
same,MIC99,C. neoformans (F10025),< 5 µg/mL
same,MIC99,Candida auris (H.17.157),> 50 µg/mL
